Assay results reported in US5510501A, “Saintopin derivatives” (Kyowa Hakko Kogyo, Co. Ltd., priority 1992, dated 1996).
Values after ≈ are worked out from the molar mass of the structure shown.

Columns and labels:
Solubility = format: physicochemical
HeLaS3 cells = test: Anti-tumor activity against HeLaS3 cells (Neutral Red growth inhibition); format: cell-based; details: Homo sapiens, HeLa S3, 72 hours
Protocol: HeLaS3 cells (ATCC HTB22) were suspended in a medium comprising 10% fetal calf serum, 2 mM glutamine and MEM medium (produced by Nippon Pharmaceutical Co., Ltd.) (hereinafter referred to as medium A) to a concentration of 3×10^4 cells/ml. The cell suspension was put into wells of a 96-well microtiter plate in an amount of 0.1 ml per well. The cells in the plate were cultured at 37° C. for 20 hours in a CO2 -incubator. Subsequently, the test compound appropriately diluted with medium A was added to the wells in an amount of 0.1 ml/well. The cells were further cultured at 37° C. for 72 hours in the CO2 -incubator, and then the culture supernatant was removed. To the residue was added a medium comprising medium A and 0.02% Neutral Red in an amount of 0.1 ml per well, followed by culturing at 37° C. for one hour in the CO2 -incubator, whereby the cells were stained. After removal of the culture supernatant, the residue was washed once with physiological saline. The pigment was extracted with 0.001N hydrochloric acid/30% ethanol, and the absorbance at 550 nm was measured by using a microplate reader. The concentration of the test compound at which the growth of the cells is inhibited by 50% (IC50) was calculated by comparing the absorbance of untreated cells with those of the cells treated with the test compound at known concentrations.

[1] = tested on: Enterococcus faecium ATCC 10541; test: Antibacterial activity, MIC by agar dilution method; format: cell-based; details: ATCC10541, pH 7
Protocol: (§1) The antibacterial activity was determined by the agar dilution method using a medium (pH 7) which comprises 3 g/l Bacto-Tryptone (produced by Difco Laboratories), 3 g/l meat extract, 1 g/l yeast extract, 1 g/l glucose and 16 g/l agar.

[2] = tested on: Staphylococcus aureus ATCC 6538P; test: as above; format: cell-based; details: ATCC6538P, pH 7
Protocol: as §1

BALB 3T3/H-ras cells = test: Growth inhibition against BALB 3T3/H-ras cells; format: cell-based; details: Mus musculus, 72 hours, Neutral Red

SMILES	Solubility (Solubility; water)	Solubility (Solubility; ethanol)	Solubility (Solubility; methanol)	Solubility (Solubility; n-hexane)	IC50 (HeLaS3 cells) [µM]	MIC [1] [µg/mL]	MIC [2] [µg/mL]	IC50 (BALB 3T3/H-ras cells) [µM]	Solubility (Solubility; acetone)	Solubility (Solubility; chloroform)	Solubility (Solubility; dimethyl sulfoxide (DMSO))	Solubility (Solubility; ethyl acetate)
O=C1c2cc(O)cc(O)c2C(=O)c2c1cc1cc(O)cc(O)c1c2O [UCT 1003, reference compound]	sparingly soluble											
O=C1c2cc(O)cc(O)c2C(=O)c2c1cc1cc(O)cc(OS(=O)(=O)O)c1c2O [UCE 1022]	Soluble	Soluble	Soluble	sparingly soluble	6.1	0.52 (≈ 1.24 µM)	0.52 (≈ 1.24 µM)					
CC(=O)c1c(O)cc2cc3c(c(O)c2c1O)C(=O)c1c(O)cc(O)cc1C3=O [Saintopin E]	sparingly soluble		Readily soluble	sparingly soluble				2.4	Readily soluble	soluble	Readily soluble	soluble
